{"source": "patent US12527764B2", "about": "“Methods and compositions for treating androgen receptor deficient, androgen receptor low, and castration-resistant prostate cancers” (FRED HUTCHINSON CANCER CENTER, priority 2019, dated 2026)", "key": {"AR− APIPC xenograft": {"system": "AR− APIPC xenograft", "assay": "AR− APIPC xenograft preclinical trial", "assay_type": "in vivo", "settings": "15 mg/kg intraperitoneal", "procedure": "(§1) 1×10^6 AR+ parental and AR− APIPC cells were resuspended 1:1 in Matrigel (Corning): RPMI-1640 (Gibco) and subcutaneously injected into the flanks of intact or castrate NOD-scid IL2Rgamma^null mice respectively. 1×1×1 mm^3 of LuCaP 173.2 tumor chunks were implanted into the flank of castrate mice. Tumor volume was calculated using the formula (L(W^2))/2, where L is the length of the tumor and W the width. When tumors reached 100 mm^3, animals were randomized to receive intraperitoneal injections of 15 mg/kg 4E1RCat (Selleckchem) or vehicle (5.2% PEG400 and 5.2% TWEEN80 in ddH2O), Monday-Friday."}, "[1]": {"system": "AR-null non-neuroendocrine LuCaP 173.2 PDX", "assay": "LuCaP 173.2 PDX preclinical trial", "assay_type": "in vivo", "settings": "15 mg/kg intraperitoneal", "procedure": "as §1"}, "[2]": {"system": "AR+ parental APIPC xenograft", "assay": "AR+ parental APIPC xenograft preclinical trial", "assay_type": "in vivo, intact NOD-scid IL2Rgamma^null mice", "settings": "uncastrated mice, 15 mg/kg intraperitoneal, versus vehicle", "procedure": "as §1"}, "[3]": {"system": "primary intact (DHT+) Pten^L/L cells", "assay": "IncuCyte in vitro proliferation assay, primary intact Pten^L/L cells", "assay_type": "cell-based, mouse", "settings": "48 hours, same drug concentrations as in castrate cells", "procedure": "(§2) Human APIPC cell lines were provided by P.S.N., and grown as previously described (11). PC3-4EBP1^M, VCaP, 22Rv1, C4-2, and LNCaP cells were cultured in RPMI-1640 with 10% FBS or phenol-red free RPMI with 10% charcoal stripped FBS (Gemini). Intact/castrate […] mouse prostates were harvested at 16 weeks of age, micro-dissected, and minced using a scalpel. Tissue chunks were incubated in 5 mg/ml collagenase II (Gibco) in Dulbecco's modified Eagle's medium for 1 hour at 37° C., followed by 5 min further digestion with TrypLE (Thermo Fisher). The dissociated cells were passed through a 40 µm nylon mesh (Falcon) to obtain single cells. Twenty thousand cells were embedded in 50 μl of Matrigel (Corning) and plated on 24-well ultra-low attachment plates (Corning). Medium components include the following: Advanced Dulbecco's Modified Eagle Medium containing B-27 supplement (Gibco), 1.25 mM N-Acetyl-L-cysteine (Sigma), 50 ng/ml EGF (Peprotech), 200 nM A83-01 (Tocris Bioscience), 500 ng/ml R-spondin1 (conditioned medium and R-spondin1 expressing plasmid provided by Y.C.), 10 μM Y-27632 (Sigma), and 100 ng/ml Noggin (Peprotech). […] Established organoids were passaged as 3D organoids or cultured as 2D cells. […] Cell proliferation was monitored by analyzing the occupied area (% confluence) of cell images over time. […]"}, "[4]": {"system": "primary castrate (DHT−) Pten^L/L cells", "assay": "IncuCyte in vitro proliferation assay, primary castrate Pten^L/L cells", "assay_type": "cell-based, mouse", "settings": "48 hours, same drug concentrations as in intact cells", "procedure": "as §2"}, "[5]": {"system": "AR− APIPC prostate cancer cells", "assay": "IncuCyte in vitro proliferation assay, AR+ parental versus AR− APIPC prostate cancer cells", "assay_type": "cell-based, human", "settings": "AR-null APIPC cells compared with parental (AR+) cells, 48 hours", "procedure": "as §2"}, "[6]": {"target": "T1, eIF4E-eIF4G interaction (eIF4F complex) (Mus musculus, UniProt P63073)", "T1 construct": "Pten^L/L intact and castrate cells were treated with 50 μM 4E2RCat (MedChemExpress) and 20 μM 4EGI-1 (Selleckchem) for 24 hours; endogenous in cells; host or cells: primary intact and castrate Pten L/L mouse prostate cancer cells", "T1 sequence (P63073 whole entry, one chain of several)": "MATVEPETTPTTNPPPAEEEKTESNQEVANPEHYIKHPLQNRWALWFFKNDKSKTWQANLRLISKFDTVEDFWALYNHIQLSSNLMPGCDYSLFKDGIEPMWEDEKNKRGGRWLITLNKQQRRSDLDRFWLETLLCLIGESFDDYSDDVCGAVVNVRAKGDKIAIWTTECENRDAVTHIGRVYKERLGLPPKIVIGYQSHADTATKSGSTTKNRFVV", "assay": "eIF4E-eIF4G proximity ligation assay in intact and castrate Pten^L/L cells", "assay_type": "cell-based", "settings": "50 μM, 24 hours", "procedure": "(§3) The in-situ proximity ligation assay (PLA) was optimized to detect eIF4E-eIF4G or eIF4E-4EBP1 interactions in intact/castrate Pten^L/L and castrate Pten^L;4ebp1^M FFPE tissue sections and adherent cells. FFPE sections were deparaffinized, rehydrated, and subjected to antigen retrieval in a decloaking chamber at 95° C. for 30 min in Tris-based antigen unmasking solution, pH 9 (Vector). After 30 min blocking, primary antibody incubation was performed at 4° C. overnight: eIF4E (SCBT), eIF4G (CST), and 4EBP1 (CST).\n(§4) Adherent cells were grown on coverslips placed in 6-well plates until 60-70% confluent. […] Permeabilized cells were washed using 1× wash buffer followed by 1 hour blocking in a humidity chamber at 37° C. Next, cells were incubated with primary antibodies: eIF4G (CST) and eIF4E (BD Biosciences) for 2 hours at room temperature.\n(§5) After incubation with primary antibody, both FFPE tissues and adherent cells were subjected to incubation with secondary antibodies conjugated to oligonucleotides (PLA plus/minus probes) for 1 hour at 37° C. The two hybridized oligonucleotides were joined in a closed circle using a ligase at 37° C. for 30 min. The DNA was then amplified with rolling circle amplification, and detection of the amplicons was carried out using the Brightfield detection kit (Sigma)."}, "[7]": {"target": "eIF4E-eIF4G interaction (eIF4F complex) (Homo sapiens, UniProt P06730)", "sequence (P06730 whole entry, one chain of several)": "as the sequence (P63073 whole entry, one chain of several) above, with T12P, P16T, A17T, D174E counted along it", "assay": "eIF4E-eIF4G proximity ligation assay in AR+ parental and AR− APIPC cells", "assay_type": "cell-based", "settings": "10 μM, 24 hours", "procedure": "as §3, §4, §5"}, "[8]": {"system": "de novo protein synthesis", "settings": "castrate Pten^L/L primary prostate cancer cells, 1 nM DHT add back, 48 hours"}, "[9]": {"system": "4ebp1 transcript expression", "assay": "4ebp1 transcript expression in castrate Pten^L/L cells under enzalutamide", "assay_type": "cell-based, mouse", "settings": "further inhibition of AR", "procedure": "Total RNA was isolated using RNeasy Plus Mini Kit (Qiagen) and reverse-transcribed with iScript Reverse Transcription Supermix (Bio-Rad). cDNA was diluted 1:1 with water. Quantitative PCR was performed with 1 μl cDNA using SsoAdvanced SYBR Supermix (Bio-Rad) with primer sets specific for Ar, 4ebp1, Cacul1, Denr, Klf5, Rps15, Gapdh, luciferase, RPS19, and actin (Table 3). Normalized mRNA expression was calculated using the comparative Ct method."}, "[10]": {"settings": "castrated mice, Monday-Friday, versus vehicle"}}}
{"smiles": "O=C(O)c1ccc(N2C(=O)/C(=C/c3ccc(-c4ccc([N+](=O)[O-])cc4)o3)C=C2c2ccccc2)cc1", "note": "[4E1RCat, 4-[(3E)-3-[[5-(4-nitrophenyl)furan-2-yl]methylidene]-2-oxo-5-phenylpyrrol-1-yl]benzoic acid]", "values": [{"measurement": "toxicity to mice (body weight)", "setting": "AR− APIPC xenograft; castrated NSG mice", "result": "without overt toxicity"}, {"measurement": "survival", "setting": "AR− APIPC xenograft; [10]", "result": "improvement"}, {"measurement": "tumor growth", "setting": "AR− APIPC xenograft; [10]", "result": "marked decrease"}, {"measurement": "toxicity to mice (body weight)", "setting": "[1]; castrated NSG mice", "result": "without overt toxicity"}, {"measurement": "survival", "setting": "[1]; [10]", "result": "improvement"}, {"measurement": "tumor growth", "setting": "[1]; [10]", "result": "marked decrease"}, {"measurement": "tumor growth (sensitivity of the model)", "setting": "[2]", "result": "completely insensitive"}]}
{"smiles": "O=C(O)c1cc(-c2ccc(/C=C3/SC(=S)N(Cc4ccccc4)C3=O)o2)ccc1Cl", "note": "[4E2RCat, 5-[5-[(E)-(3-Benzyl-4-oxo-2-sulfanylidene-1,3-thiazolidin-5-ylidene)methyl]furan-2-yl]-2-chlorobenzoic acid]", "values": [{"measurement": "effect on cell proliferation", "setting": "[3]", "result": "negligible effects"}, {"measurement": "effect on cell proliferation", "setting": "[4]", "result": "profound changes"}, {"measurement": "sensitivity of proliferation to eIF4E-eIF4G disruption", "setting": "[5]", "result": "more sensitive"}, {"measurement": "eIF4F complex formation (proximity ligation assay)", "setting": "[6]", "result": "disrupt eIF4F complex formation"}, {"measurement": "eIF4F complex formation (proximity ligation assay)", "setting": "[7]", "result": "disrupt eIF4F complex formation"}]}
{"smiles": "C[C@]12CCC(=O)C[C@@H]1CC[C@@H]1[C@@H]2CC[C@]2(C)[C@@H](O)CC[C@@H]12", "note": "[DHT, dihydrotestosterone]", "values": [{"measurement": "de novo protein synthesis (puromycin incorporation)", "setting": "[8]", "result": "decreases"}]}
{"smiles": "O=C(O)C(Cc1ccccc1[N+](=O)[O-])=NNc1nc(-c2ccc(Cl)c(Cl)c2)cs1", "note": "[4EGI-1, α-[2-[4-(3,4-Dichlorophenyl)-2-thiazolyl]-hydrazinylidene]-2-nitrobenzene-propanoic acid]", "values": [{"measurement": "effect on cell proliferation", "setting": "[3]", "result": "negligible effects"}, {"measurement": "effect on cell proliferation", "setting": "[4]", "result": "profound changes"}, {"measurement": "sensitivity of proliferation to eIF4E-eIF4G disruption", "setting": "[5]", "result": "more sensitive"}]}
{"smiles": "CNC(=O)c1ccc(N2C(=S)N(c3ccc(C#N)c(C(F)(F)F)c3)C(=O)C2(C)C)cc1F", "note": "[enzalutamide]", "values": [{"measurement": "4ebp1 transcript expression", "setting": "[9]", "result": "does not impact"}]}
